Patent US12037345B2, “Heterobicyclic compounds for inhibiting the activity of SHP2” (TAIHO PHARMACEUTICAL CO., LTD., priority 2018, dated 2024)
Read-outs that look alike come from different tables or passages of the source.

Legend:
[1] = test system: pERK (phospho-p44/42 ERK) in HCC827 cells; test: Cellular pERK Inhibition Assay, Method A (In-Cell Western); format: cell-based; settings: Table 19, head prints unit as "-M", read-out: pERK (IC50) Method A
How it was run: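 HCC827 cells in RPMI/10% FBS were treated with compounds in serum-free medium (0.2% DMSO final) at 37 °C for the indicated time, in quadruplicate. Fixed cells were immunostained for phospho-p44/42 ERK and read by infrared imaging. Blank-subtracted signal was expressed as % of DMSO control; IC50 from four-parameter logistic fit, averaged across experiments.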

SHP2 = SHP2 (Homo sapiens (Human), UniProt Q06124); test: SHP2 Biochemical Assay (DiFMUP conversion, pIRS1-activated); settings: Table 19; head prints unit as "-M"
Sequence of SHP2 (Q06124 whole entry): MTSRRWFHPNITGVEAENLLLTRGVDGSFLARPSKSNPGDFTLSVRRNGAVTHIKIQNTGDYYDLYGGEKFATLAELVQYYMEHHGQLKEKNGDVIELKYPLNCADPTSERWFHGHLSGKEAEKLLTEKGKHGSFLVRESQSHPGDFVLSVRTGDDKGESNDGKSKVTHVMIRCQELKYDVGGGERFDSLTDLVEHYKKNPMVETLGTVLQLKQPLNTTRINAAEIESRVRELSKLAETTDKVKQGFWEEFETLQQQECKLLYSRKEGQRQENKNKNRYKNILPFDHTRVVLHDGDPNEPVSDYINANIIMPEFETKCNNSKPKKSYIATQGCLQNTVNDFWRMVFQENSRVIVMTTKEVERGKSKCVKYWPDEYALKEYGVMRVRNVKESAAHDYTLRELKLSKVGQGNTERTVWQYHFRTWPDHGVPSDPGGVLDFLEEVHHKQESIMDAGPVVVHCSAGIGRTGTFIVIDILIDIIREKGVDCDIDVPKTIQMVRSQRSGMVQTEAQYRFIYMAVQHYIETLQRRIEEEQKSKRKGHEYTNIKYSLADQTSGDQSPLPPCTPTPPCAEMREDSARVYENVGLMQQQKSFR
How it was run: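 Human SHP2 (10 pM) pre-incubated 30 min with compound and […] pIRS1 activating peptide, then 50 μM DiFMUP added; buffer 25 mM Bis-Tris propane pH 7.0, 150 mM NaCl, 5% DMSO. Fluorescence rate (ex 360/em 450 nm) over 30 min; IC50 by four-parameter fit, averaged across experiments.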

| SMILES | IC50 ([1]; Homo sapiens) [nM] | IC50 (SHP2) [nM] | IC50 [1] [nM] |
| --- | --- | --- | --- |
| Cn1cc2c(Cl)c(-c3c[nH]c4nc(N5CC[C@@H](CN)C5)n(C)c(=O)c34)ccc2n1 [Example 63, (S)-2-(3-(aminomethyl)pyrrolidin-1-yl)-5-(4-chloro-2-methyl-2H-indazol-5-yl)-3-methyl-3,7-dihydro-4H-pyrrolo[2,3-d]pyrimidin-4-one] | 4300 | 110 |  |
| COC1(CN)CCN(c2nc3[nH]cc(-c4ccc5nn(C)cc5c4Cl)c3c(=O)n2C)CC1 [Example 64, 2-(4-(aminomethyl)-4-methoxypiperidin-1-yl)-5-(4-chloro-2-methyl-2H-indazol-5-yl)-3-methyl-3,7-dihydro-4H-pyrrolo[2,3-d]pyrimidin-4-one] | 1500 | 42 |  |
| Cn1cc2c(Cl)c(-c3c[nH]c4nc(N5CCC(F)(CN)CC5)n(C)c(=O)c34)ccc2n1 [Example 65, 2-(4-(aminomethyl)-4-fluoropiperidin-1-yl)-5-(4-chloro-2-methyl-2H-indazol-5-yl)-3-methyl-3,7-dihydro-4H-pyrrolo[2,3-d]pyrimidin-4-one] | 430 | 33 |  |
| CCn1cc2c(Cl)c(-c3c[nH]c4nc(N5C6CCCC5CNC6)n(C)c(=O)c34)ccc2n1 [Example 66, 2-(3,9-diazabicyclo[3.3.1]nonan-9-yl)-5-(4-chloro-2-ethyl-2H-indazol-5-yl)-3-methyl-3,7-dihydro-4H-pyrrolo[2,3-d]pyrimidin-4-one] | 82 | 8.2 |  |
| Cn1cc2cc(-c3c[nH]c4nc(N5[C@@H]6CC[C@H]5C[C@@H](N)C6)n(C)c(=O)c34)ccc2n1 [Example 67, 2-(endo-3-amino-8-azabicyclo[3.2.1]octan-8-yl)-3-methyl-5-(2-methyl-2H-indazol-5-yl)-3,7-dihydro-4H-pyrrolo[2,3-d]pyrimidin-4-one] | 3400 | 340 |  |
| Cc1nc2ccc(-c3c[nH]c4nc(N5[C@@H]6CC[C@H]5C[C@@H](N)C6)n(C)c(=O)c34)c(Cl)c2o1 [Example 68, 2-(endo-3-amino-8-azabicyclo[3.2.1]octan-8-yl)-5-(7-chloro-2-methylbenzo[d]oxazol-6-yl)-3-methyl-3,7-dihydro-4H-pyrrolo[2,3-d]pyrimidin-4-one] | 670 | 41 |  |
| CCc1nc2ccc(-c3c[nH]c4nc(N5[C@@H]6CC[C@H]5C[C@@H](N)C6)n(C)c(=O)c34)c(Cl)c2o1 [Example 69, 2-(endo-3-amino-8-azabicyclo[3.2.1]octan-8-yl)-5-(7-chloro-2-ethylbenzo[d]oxazol-6-yl)-3-methyl-3,7-dihydro-4H-pyrrolo[2,3-d]pyrimidin-4-one] | 3000 | 120 |  |
| Cn1cc2c(F)c(-c3c[nH]c4nc(N5[C@@H]6CC[C@H]5C[C@@H](N)C6)n(C)c(=O)c34)ccc2n1 [Example 70, 2-(endo-3-amino-8-azabicyclo[3.2.1]octan-8-yl)-5-(4-fluoro-2-methyl-2H-indazol-5-yl)-3-methyl-3,7-dihydro-4H-pyrrolo[2,3-d]pyrimidin-4-one] | 190 | 29 |  |
| Cn1c(N2C3CCC2CC(N)C3)nc2[nH]cc(-c3cc4nnn(C)c4c(F)c3F)c2c1=O (stereo not drawn) [Example 71, 2-(endo-3-amino-8-azabicyclo[3.2.1]octan-8-yl)-5-(6,7-difluoro-1-methyl-1H-benzo[d][1,2,3]triazol-5-yl)-3-methyl-3,7-dihydro-4H-pyrrolo[2,3-d]pyrimidin-4-one] |  | 260 | 5000 |
| Cn1cc2cc(-c3c[nH]c4nc(N5[C@@H]6CC[C@H]5C[C@@H](N)C6)n(C)c(=O)c34)c(F)cc2n1 [Example 72, 2-(endo-3-amino-8-azabicyclo[3.2.1]octan-8-yl)-5-(6-fluoro-2-methyl-2H-indazol-5-yl)-3-methyl-3,7-dihydro-4H-pyrrolo[2,3-d]pyrimidin-4-one] | 1900 | 99 |  |
| COc1c(-c2c[nH]c3nc(N4C5CCC4CC(N)C5)n(C)c(=O)c23)ccc2nn(C)cc12 (stereo not drawn) [Example 73, 2-(endo-3-amino-8-azabicyclo[3.2.1]octan-8-yl)-5-(4-methoxy-2-methyl-2H-indazol-5-yl)-3-methyl-3,7-dihydro-4H-pyrrolo[2,3-d]pyrimidin-4-one] |  | 870 | > 10000 |
| Cn1c(N2[C@@H]3CC[C@H]2C[C@@H](N)C3)nc2[nH]cc(-c3ccc4nnn(C)c4c3Cl)c2c1=O [Example 74, 2-(endo-3-amino-8-azabicyclo[3.2.1]octan-8-yl)-5-(7-chloro-1-methyl-1H-benzo[d][1,2,3]triazol-6-yl)-3-methyl-3,7-dihydro-4H-pyrrolo[2,3-d]pyrimidin-4-one] | 5400 | 170 |  |
| Cn1c(N2[C@@H]3CC[C@H]2C[C@@H](N)C3)nc2[nH]cc(-c3ccc4nn(CC(C)(C)O)cc4c3Cl)c2c1=O [Example 75, 2-(endo-3-amino-8-azabicyclo[3.2.1]octan-8-yl)-5-(4-chloro-2-(2-hydroxy-2-methylpropyl)-2H-indazol-5-yl)-3-methyl-3,7-dihydro-4H-pyrrolo[2,3-d]pyrimidin-4-one] | 2100 | 28 |  |
| Cc1cc(-c2c[nH]c3nc(N4[C@@H]5CC[C@H]4C[C@@H](N)C5)n(C)c(=O)c23)c(Cl)c2cn(C)nc12 [Example 76, 2-(endo-3-amino-8-azabicyclo[3.2.1]octan-8-yl)-5-(4-chloro-2,7-dimethyl-2H-indazol-5-yl)-3-methyl-3,7-dihydro-4H-pyrrolo[2,3-d]pyrimidin-4-one] | 180 | 31 |  |
| Cn1c(N2[C@@H]3CC[C@H]2C[C@@H](N)C3)nc2[nH]cc(-c3ccc4[nH]ncc4c3Cl)c2c1=O [Example 77] | 1900 | 40 |  |
| Cn1nc2ccc(-c3c[nH]c4nc(N5[C@@H]6CC[C@H]5C[C@@H](N)C6)n(C)c(=O)c34)c(Cl)c2c1Cl [Example 78, 2-(endo-3-amino-8-azabicyclo[3.2.1]octan-8-yl)-5-(3,4-dichloro-2-methyl-2H-indazol-5-yl)-3-methyl-3,7-dihydro-4H-pyrrolo[2,3-d]pyrimidin-4-one] | 130 | 6 |  |
| Cn1nc2ccc(-c3c[nH]c4nc(N5[C@@H]6CC[C@H]5C[C@@](C)(N)C6)n(C)c(=O)c34)c(Cl)c2c1Cl [Example 79, 2-(endo-3-amino-3-methyl-8-azabicyclo[3.2.1]octan-8-yl)-5-(3,4-dichloro-2-methyl-2H-indazol-5-yl)-3-methyl-3,7-dihydro-4H-pyrrolo[2,3-d]pyrimidin-4-one] | 160 | 5.5 |  |
| Cn1nc2ccc(-c3c[nH]c4nc(N5CC6COCC(C5)N6)n(C)c(=O)c34)c(Cl)c2c1Cl [Example 80, 2-(3-oxa-7,9-diazabicyclo[3.3.1]nonan-7-yl)-5-(3,4-dichloro-2-methyl-2H-indazol-5-yl)-3-methyl-3,7-dihydro-4H-pyrrolo[2,3-d]pyrimidin-4-one] | 270 | 11 |  |
| Cc1nc2ccc(-c3c[nH]c4nc(N5CC6COCC(C5)N6)n(C)c(=O)c34)c(Cl)c2s1 [Example 81, 2-(3-oxa-7,9-diazabicyclo[3.3.1]nonan-7-yl)-5-(7-chloro-2-methylbenzo[d]thiazol-6-yl)-3-methyl-3,7-dihydro-4H-pyrrolo[2,3-d]pyrimidin-4-one] | 780 | 14 |  |
